According to patent US10413612B2, “Method of treating cancer with a biomaterial and a toll-like receptor agonist” (Dana-Farber Cancer Institute, Inc., priority 2016, dated 2019):

How the values were obtained:
[1] = test system: 4T1-Luc2 syngeneic breast cancer cells; details: hydrogel with IL-15sa and anti-PD-1 (devices 1, 14-16)
Method: Seven-week-old female Balb/c mice were inoculated orthotopically with 100,000 4T1-Luc2 syngeneic breast cancer cells (into the fourth mammary fat pad). After 10 days, the mice were anesthetized, tumors were surgically resected, and compositions were placed in the resection site. […] The order of surgeries avoided systematic error by dividing up the groups. Standard follow-up care (wound clips, analgesic) was provided.
For the metastatic breast cancer model, 10^5 4T1-Luc2 or 4T1 cells (in 30 μl DPBS) were inoculated orthotopically into the fourth mammary pad of mice to generate a local tumor mass. Cells were injected without any incision to expose the fat pad. Mice were randomly assigned to treatment groups, and surgery was performed 10 days after tumor inoculation. For the metastatic melanoma and lung cancer models, 10^6B16-BL6 or 5×10^5 LLC cells (in 100 μl DPBS) were inoculated subcutaneously in mice to generate a local tumor mass. Mice were randomly assigned to treatment groups, and surgery was performed when tumor volumes reached ˜600 mm^3. While mice were kept under anesthesia at 2% isoflurane, the tumor was resected, and the hydrogel was placed in the site of the resultant cavity at the time of surgery. The wound was closed with medical clips. Control experiments were performed in which therapy was administered in solution at the site of surgery, intraperitoneally, or intravenously. For tumor re-challenge experiments, 10^4 4T1-Luc2 cells were inoculated in the contralateral fourth mammary fat pad. The surgeries were performed independently at least three times, and the surgeon was often blinded.
After surgery, mice were inspected weekly for tumor recurrence and distal metastasis by bioluminescence imaging (BLI). To this end, 10 min after intraperitoneal injection of D-luciferin (150 mg/kg), a substrate of Luc2, the mice were anesthetized with 2% isoflurane and imaged using an IVIS Spectrum In Vivo Imaging System (Perkin Elmer).
A series of compositions described above in Table 2 were evaluated in viva. In each group of evaluations, seven-week-old female Balb/c mice were inoculated orthotopically with 100,000 4T1-Luc2 syngeneic breast cancer cells (into the fourth mammary fat pad). After 10 days, mice were anesthetized, tumors were surgically resected, and the composition was placed in the resection site. Tumor relapse and metastasis were monitored via imaging over the course of 6 weeks.
Female BALB/cJ mice were inoculated orthotopically with 4T1-Luc2 breast cancer cells in their fourth mammary fat pad. Nine days later, the mice were imaged by bioluminescent IVIS imaging to confirm that the size of the tumors was consistent across animals to enable randomization into groups. On day 10 post-tumor inoculation, tumors (˜100 mm^3) were resected, and device 1 was placed in the tumor resection site. Controls included no treatment (sham), empty hydrogel (device 8/hydrogel 4), or delivery of the triple combination in solution (S+I+P)—via intraperitoneal injection, intravenous injection, or local administration.

[2] = In vitro release study of payloads from hydrogel; assay type: physicochemical; details: sink conditions, PBS or media
Method: To determine the release kinetics of each payload from the hydrogel, a hydrogel loaded with fluorescently tagged anti-PD-1, fluorescently tagged IL-15sa, lenalidomide, celecoxib, fluorescently tagged 2′3′-cGAMP, or R848 was immersed in 3 mL pH 7.4 phosphate buffered saline (PBS). At each time point, 1 mL of media was taken out and the same amount of fresh buffer was added back. The amount of payload that had been released was then measured using a fluorescence plate reader or via HPLC.
Hydrogels were prepared according to the general procedure in Example 1. They contained either one or all of the payloads indicated. Fluorescent dyes were conjugated to the proteins to facilitate the measurement of protein release kinetics. The hydrogels were immersed in 3 mL of buffer (either PBS only, PBS with Tween80 (0.2% v/v), or RPMI with 10% FBS) and incubated at 37° C. with stirring.
At the indicated sampling time points, 1 mL of buffer was recovered for measurement and was replaced by an equivalent volume of fresh buffer. The aliquots were measured using a fluorescence plate reader to determine protein concentration. Aliquots were also assessed by HPLC to determine small molecule concentration.

[3] = In vivo release study (fluorescence IVIS imaging); design: species or system non-tumor-bearing mice; details: each time point: first 24 hours (2′3′-cGAMP), first week (IL-15sa)
Text: To evaluate the in vivo release profiles of Cy7 carboxylic acid (a model compound for R848), anti-PD-1, IL-15sa, and 2′3′-cGAMP, hydrogels containing the fluorophore or one of the fluorescently labeled payloads were surgically implanted into non-tumor-bearing mice.
The loading and release properties of the hydrogel were examined in additional experiments. […] It was then confirmed that the hydrogel extends the release of the small molecules and biologics in vivo. Cy7 carboxylic acid (Cy7-CA) was used as a model small molecule payload, as its physical properties are very similar to those of resiquimod (R848). Cy7-CA was administered to non-tumor-bearing mice, either in solution or loaded in a scaffold placed by the fourth mammary fat pad. The mice were assessed by fluorescence IVIS imaging (FIG. 37B), and the data were quantified (FIG. 37C). Whereas a loss of ˜60% of the signal was detected within two hours of administration of the fluorophore in solution, this amount of signal decay required 24 hours for the fluorophore loaded in the hydrogel. Over this time course, there was a […] for the latter group, on average.
To confirm that the hydrogel sustains the release of the small molecule and biologics in vivo, fluorescently labeled versions of 2 ? […]

Question: With 2′3′-cGAMP as the substance, how does the “survival benefit as innate immune activator component” value [1] read?
Answer: Its value is “conferred greater survival benefit than the Toll-like receptor (TLR) 7/8 agonist R848”.

Question: And the “in vitro release kinetics (time scale)” value [2]?
Answer: The value was “hours for the small molecule”.

Question: What about the “percentage remaining locally, hydrogel relative to free compound” value [3] of the same substance?
Answer: Its value is “nearly twice”.
